Results from patent EP3763226A1, “COMPOSITION FOR REDUCING HAIR LOSS AND IMPROVING HAIR GROWTH IN CASES OF ANDROGENETIC ALOPECIA” (Merz Pharma GmbH & Co. KGaA, priority 2019, dated 2021).

Tests used:
5-α-Reduktase Typ I = biological target: T1, 5-α-Reduktase Typ I (Homo sapiens, UniProt P18405); assay: Cell-free in vitro 5α-reductase type I inhibition assay (HEK I cell homogenate, androstenedione conversion, LC-HRMS); type: biochemical; settings: concentration giving 50% inhibition; Abbildung 1; read-out: IC50-Wert für die 5 alpha Reduktase vom Typ I
T1 construct: expressed in transfected cells; host or cells: HEK293 (HEK I), stably transfected; gift of Prof; R. W. Hartmann, Saarland University; particulate fraction of the cell homogenate used
T1 sequence (P18405 1-259): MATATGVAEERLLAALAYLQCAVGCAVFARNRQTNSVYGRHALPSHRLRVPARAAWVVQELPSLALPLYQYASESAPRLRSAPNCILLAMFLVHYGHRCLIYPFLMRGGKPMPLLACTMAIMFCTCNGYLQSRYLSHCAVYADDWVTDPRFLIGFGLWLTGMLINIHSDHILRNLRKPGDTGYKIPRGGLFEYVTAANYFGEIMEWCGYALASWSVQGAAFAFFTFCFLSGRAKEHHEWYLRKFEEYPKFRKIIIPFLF
Description: (§1) Die HEK I Zellen exprimieren rekombinante 5 alpha Reduktase vom Typ I, während die HEK II Zellen rekombinante 5 alpha Reduktase vom Typ II exprimieren.
(§2) HEK I und HEK II Zellen wurden in DMEM (Dulbecco's modified eagle medium, ccpro GmbH) (pH 7.4) mit 10 % FCS (Fetal calf serum, PAN), Penicillin/Streptomycin (100 U/ml und 100 µg/ml) und 0.5 mg/ml Geneticin-418-sulfat in einer befeuchteten 5 % CO2 Atmosphäre bei 37°C kultiviert.
(§3) Herstellung der 5-α-Reduktase Typ I und II enthaltenen Zellfraktionen: Für den Zell-freien in vitro assays wurden HEK I oder HEK II geerntet, durch Zentrifugation (500 x g) vom Zellkulturmedium befreit und re-suspended in einem Homogenisierungs-Puffer bestehend aus 50 mM Tris-HCI (pH 7.4), 300 mM Saccharose, 0.1 mM EDTA, 10 mM DTT and 100 µM PMSF. Durch Einfrieren bei - 196 °C und Auftauen auf Eis, wurden die Zellen solubilisiert. Nach einer Inkubations-Zeitraum von 30 min bei 4°C mit 1 mg/ml DNAse in 50 mM MgCl2 und zwischenzeitlich kräftigen Schütteln, wurde das erhaltene Homogenisat bei 20,200 x g in einer gekühlten Zentrifuge für 50 min bei 4°C zentrifugiert. Das Pellet wurde im Homogenisierungs-Puffer re-suspendiert und wieder bei 20,200 x g für 30 Minuten bei at 4°C zentrifugiert. Diese Prozedur wurde zweimal wiederholt. […] Der Protein-Gehalt wurde gemäß der BCA-Methode mit dem kommerziell erhältlichen BCA-Protein Assay Kit von Pierce quantifiziert. […]

5-α-Reduktase Typ II = biological target: T2, 5-α-Reduktase Typ II (Homo sapiens, UniProt P31213); assay: Cell-free in vitro 5α-reductase type II inhibition assay (HEK II cell homogenate, androstenedione conversion, LC-HRMS); type: biochemical
T2 sequence (P31213 1-254): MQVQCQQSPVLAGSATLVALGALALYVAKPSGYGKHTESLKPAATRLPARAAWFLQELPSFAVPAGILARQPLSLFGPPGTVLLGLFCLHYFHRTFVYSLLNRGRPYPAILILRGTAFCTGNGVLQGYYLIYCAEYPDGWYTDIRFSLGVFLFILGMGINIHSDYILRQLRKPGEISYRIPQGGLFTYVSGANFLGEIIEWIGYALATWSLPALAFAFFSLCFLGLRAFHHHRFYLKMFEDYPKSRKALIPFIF
Description: as §1, §2, §3

[1] = tested on: ex-vivo Kultur von Haarfollikeln; settings: ex vivo culture of hair follicles; cited from earlier work

SMILES | IC50 (5-α-Reduktase Typ I) | IC50 (5-α-Reduktase Typ II; concentration giving 50% inhibition, Abbildung 1, read-out: IC50-Wert für die 5 alpha Reduktase vom Typ II) | Wirkung auf die 5-alpha Reduktase vom Typ II stärker als auf Typ I (5-α-Reduktase Typ II; ratio of the concentrations for 50% inhibition, type I vs type II) | Haarwachstum [1]
CC(C)(C)NC(=O)[C@H]1CC[C@H]2[C@@H]3CC[C@H]4NC(=O)C=C[C@]4(C)[C@H]3CC[C@]12C [Finasterid] | 376 nM | 1.89 nM | ca. 200 fach | 
O=C(O[C@@H]1Cc2c(O)cc(O)cc2O[C@@H]1c1cc(O)c(O)c(O)c1)c1cc(O)c(O)c(O)c1 [Epigallocatechin-3-gallate] |  |  |  | stimuliert
